# From the NIST ThermoML archive (doi:10.1016/j.tca.2017.03.024)
# Numbers after ± are expanded uncertainties.
# Settings: Crystal; DTA
row,Normal melting temperature,SMILES
1,605 ± 1 °C,[Cl-].[Li+] [lithium chloride]
2,772 ± 1 °C,[Cl-].[K+] [potassium chloride]
3,778 ± 1 °C,[Cl][Pr]([Cl])[Cl] [praseodymium(III) chloride]
